These are literature values, as cited in PMC9795861, “Inclusion complexes of the steroid hormones 17β-estradiol and progesterone with β- and γ-cyclodextrin hosts: syntheses, X-ray structures, thermal analyses and API solubility enhancements” (Beilstein Journal of Organic Chemistry, 2022).

Where two headings read alike, the source gives them in different places.

Details of series [1]: method as in earlier work.

With `C#C[C@]1(O)CC[C@H]2[C@@H]3CCc4cc(O)ccc4[C@H]3CC[C@@]21C` [ethinylestradiol], the aqueous solubility (at 27 °C, ethinylestradiol) is 11.3 × 10^−3 mg·cm^−3. Moreover, the “oral bioavailability relative to that of BES” value in series [1] is “significantly higher”.

As to `CC(=O)[C@H]1CC[C@H]2[C@@H]3CCC4=CC(=O)CC[C@]4(C)[C@H]3CC[C@]12C` [progesterone], where the note is “at 25 °C, pure progesterone, ref 6-8 (b3)”, the aqueous solubility is 8.81 × 10^−3 mg·cm^−3.
